Test results from ChEMBL document CHEMBL1149580, “Caco-2 cell permeability and stability of two d-glucopyranuronamide conjugates of thyrotropin-releasing hormone” (Bioorg Med Chem, 2007).
Non-standard residues stand in square brackets, D forms with d. Residues, ends and D or L forms follow the SMILES beside them. ξ: configuration not given here. *: point of attachment. X1 = NC(=O)[C@H]1OC(N*)[C@H](O)[C@@H](O)[C@@H]1O; ξAoc(2) = CCCCCCC(N)C(=O)O

Tests used:
[1] = Apparent permeability across human Caco-2 cells; format: ADME, cell-based
[2] = Stability in Caco-2 cells assessed as half life; format: ADME, cell-based, Colon; settings: human
[3] = Stability in Caco-2 cells after 2 hrs; format: ADME, cell-based; settings: human, read-out: Stability
[4] = Stability in Caco-2 cells after 20 mins; format: ADME, cell-based; settings: human, read-out: Stability

NC(=O)[C@H]1OC(NC(=O)[C@@H]2CCCN2C(=O)[C@H](Cc2cnc[nH]2)NC(=O)[C@@H]2CCC(=O)N2)[C@H](O)[C@@H](O)[C@@H]1O (stereo not given in full) showed a Papp [1] of 5.1 ×10⁻⁶ cm/s, a half-life [2] of 20 min and a remaining at 2 h [3] of 20%.
With CCCCCCC(N)C(=O)N[C@@H](CCC(N)=O)C(=O)N[C@@H](Cc1cnc[nH]1)C(=O)N1CCC[C@H]1C(=O)NC1O[C@H](C(N)=O)[C@@H](O)[C@H](O)[C@H]1O (stereo not given in full) (H-[ξAoc(2)]QHP-X1) the Papp [1] was 16.3 ×10⁻⁶ cm/s, the half-life [2] was 20 min and the remaining at 2 h [3] was 20%.
For OC[C@@H](O)[C@@H](O)[C@H](O)[C@H](O)CO [MANNITOL], the Papp [1] was 0.0825 ×10⁻⁶ cm/s.
Work on NC(=O)[C@@H]1CCCN1C(=O)[C@H](Cc1cnc[nH]1)NC(=O)[C@@H]1CCC(=O)N1 [PROTIRELIN] yielded a Papp [1] of 0.147 ×10⁻⁶ cm/s, a half-life [2] of 3 min and a remaining at 20 min [4] of under 5%.
